In US4199500A, “Peptides related to somatostatin” (Eli Lilly and Company, priority 1978, dated 1980):
Positions of bridges follow the written chain, without caps; N, C: chain ends. Non-standard residues stand in square brackets, D forms with d. Residues, ends and D or L forms follow the SMILES beside them.

Tests used:
[1] = test system: serum glucagon; test: Glucagon Inhibition In Dogs (I.V. infusion, L-alanine stimulation, serum glucagon by radioimmunoassay); assay type: in vivo, dog
Procedure: (§1) B. Insulin and Glucagon Inhibition In Dogs:
(§2) A normal dog is fasted overnight. An intravenous (I.V.) infusion of the test compound (dissolved in saline) is begun. Thirty minutes thereafter an additional infusion of L-alanine (dissolved in saline) is begun and is continued for a total of 15 minutes so that a total dose of about 1 mmole of L-alanine per kg. body weight is given. Infusion of the test compound is continued for an additional 15 minute period.
(§3) Blood samples are taken periodically before (at -20, -10 and -1 minutes) and after (5, 10, 15, 30, 35, 40, 45, 50, 60, 90, 120 and 150 minutes) the start of the infusion of the test compound. The serum insulin and serum glucagon concentrations in the blood are determined by radioimmunoassay. A plot is made of the glucagon and insulin concentrations versus time. The plot obtained from the test compound is compared to plots obtained from somatostatin and saline (controls) in similar experiments.
(§4) Infusion of L-alanine (in the absence of somatostatin or active test compound) causes an abrupt increase in serum insulin and glucagon concentrations. The concentrations return to basal levels after the L-alanine infusion is terminated.

[2] = test system: serum insulin; test: Insulin Inhibition In Dogs (I.V. infusion, L-alanine stimulation, serum insulin by radioimmunoassay); assay type: in vivo, dog
Procedure: as §1, §2, §3, §4

[3] = test system: growth hormone (GH) secretion; test: Growth Hormone Inhibition In Rats (pentobarbital-stimulated GH secretion, serum GH by radioimmunoassay); assay type: in vivo; settings: male rats; for % Inhibition of GH release (as compared to control): compared to saline control; for Serum Growth Hormone Conc. Mean ± SEM: sodium pentobarbital 4 mg/rat I.P., 20 minutes after dosing
Procedure: A. Growth Hormone Inhibition In Rats:
This test is a modification of the method of P. Brazeau et al. Endocrinology, 94, 184 (1974). Male rats (weighing 100-110 g.) are divided into three groups of eight rats each. Each rat is administered sodium pentobarbital at a dose of 4 mg/rat (I.P.) to stimulate growth hormone (GH) secretion. Simultaneously, one group of rats receives the test compound (S.C.); the second group receives somatostatin (S.C.); and the third group (control) receives saline (S.C.). Twenty-minutes later, the animals are decapitated and blood samples are collected. The serum concentration of growth hormone (GH) is determined by radioimmunoassay. The mean GH concentration (± standard error of the mean) is calculated for each group. The percent inhibition of GH release (as compared to saline controls) is then calculated for the test compound and for somatostatin. When tested as above-described, the peptide of Example 4 (D-Ala^2, Ala^5, D-Trp^8, Val^10, D-Phe^11 -Somatostatin) representative of the peptides of Formula III, gave the results set forth below in Table I: […]

[4] = dog, in the presence of L-alanine
[5] = dog, infusion alone (no L-alanine)
[6] = normal fasted dog, I.V. infusion 0.237 μg/Kg./min, L-alanine infusion

Structure (SMILES) | effect on increase in glucagon concentration induced by L-alanine [1, 4] | effect on basal serum concentration of glucagon [1, 5] | effect on increase in insulin concentration induced by L-alanine [2, 4] | effect on basal serum concentration of insulin [2, 5] | % Inhibition of GH release (as compared to control) ([3]; dose 2 mg/kg S.C.) [%] | Serum Growth Hormone Conc. Mean ± SEM ([3]; dose 2 mg/kg S.C.) [ng/mL] | % Inhibition of GH release (as compared to control) ([3]; dose 50 mg/kg S.C.) [%] | inhibition of glucagon concentration [1, 6] | inhibition of insulin concentration [2, 6] | Serum Growth Hormone Conc. Mean ± SEM ([3]; dose 50 mg/kg S.C.) [ng/mL]
C[C@H](N)C(=O)NCC(=O)N[C@H]1CSSC[C@@H](C(=O)O)NC(=O)[C@H](CO)NC(=O)[C@H]([C@@H](C)O)NC(=O)[C@H](Cc2ccccc2)NC(=O)[C@H]([C@@H](C)O)NC(=O)[C@H](CCCCN)NC(=O)[C@H](Cc2c[nH]c3ccccc23)NC(=O)[C@H](Cc2ccccc2)NC(=O)[C@H](Cc2ccccc2)NC(=O)[C@H](CC(N)=O)NC(=O)[C@H](CCCCN)NC1=O [Somatostatin] | inhibits the increase | causes a decrease | inhibits the increase | causes a decrease | 63 | 105 ± 69 | 93 | – | – | –
CC(C)[C@@H]1NC(=O)[C@H](CCCCN)NC(=O)[C@@H](Cc2c[nH]c3ccccc23)NC(=O)[C@H](Cc2ccccc2)NC(=O)[C@H](Cc2ccccc2)NC(=O)[C@H](C)NC(=O)[C@H](CCCCN)NC(=O)[C@@H](NC(=O)[C@@H](C)NC(=O)[C@H](C)N)CSSC[C@@H](C(=O)O)NC(=O)[C@H](CO)NC(=O)[C@H]([C@@H](C)O)NC(=O)[C@@H](Cc2ccccc2)NC1=O [Example 4, L-Alanyl-D-alanyl-L-cysteinyl-L-lysyl-L-alanyl-L-phenylalanyl-L-phenylalanyl-D-tryptophyl-L-lysyl-L-valyl-D-phenyl-alanyl-L-threonyl-L-seryl-L-cysteine cyclic (3->14) disulfide] (H-A[dA]CKAFF[dW]KV[dF]TSC-OH; disulfide 3-14) | – | – | – | – | 7.8 | 61 ± 24 | 66 | no significant inhibition | no significant inhibition | 97 ± 39
